What is called IC50 is the concentration that gives 50% inhibition. A lower IC50 goes with greater potency in that assay.

Molecules are shown by their SMILES.

The values below come from the Kinase Knowledgebase extract (Sharma et al. 2016).

Assay [1] addresses PIK3CA (human) (UniProt P42336). Kind of assay: Inhibition of PIK3CA Kinase Activity.
Assay [2] addresses PIK3CG (human) (UniProt P48736). Description: Inhibition of PIK3CG Kinase Activity.

Chain of PIK3CG (human) (P48736 whole entry, looked up): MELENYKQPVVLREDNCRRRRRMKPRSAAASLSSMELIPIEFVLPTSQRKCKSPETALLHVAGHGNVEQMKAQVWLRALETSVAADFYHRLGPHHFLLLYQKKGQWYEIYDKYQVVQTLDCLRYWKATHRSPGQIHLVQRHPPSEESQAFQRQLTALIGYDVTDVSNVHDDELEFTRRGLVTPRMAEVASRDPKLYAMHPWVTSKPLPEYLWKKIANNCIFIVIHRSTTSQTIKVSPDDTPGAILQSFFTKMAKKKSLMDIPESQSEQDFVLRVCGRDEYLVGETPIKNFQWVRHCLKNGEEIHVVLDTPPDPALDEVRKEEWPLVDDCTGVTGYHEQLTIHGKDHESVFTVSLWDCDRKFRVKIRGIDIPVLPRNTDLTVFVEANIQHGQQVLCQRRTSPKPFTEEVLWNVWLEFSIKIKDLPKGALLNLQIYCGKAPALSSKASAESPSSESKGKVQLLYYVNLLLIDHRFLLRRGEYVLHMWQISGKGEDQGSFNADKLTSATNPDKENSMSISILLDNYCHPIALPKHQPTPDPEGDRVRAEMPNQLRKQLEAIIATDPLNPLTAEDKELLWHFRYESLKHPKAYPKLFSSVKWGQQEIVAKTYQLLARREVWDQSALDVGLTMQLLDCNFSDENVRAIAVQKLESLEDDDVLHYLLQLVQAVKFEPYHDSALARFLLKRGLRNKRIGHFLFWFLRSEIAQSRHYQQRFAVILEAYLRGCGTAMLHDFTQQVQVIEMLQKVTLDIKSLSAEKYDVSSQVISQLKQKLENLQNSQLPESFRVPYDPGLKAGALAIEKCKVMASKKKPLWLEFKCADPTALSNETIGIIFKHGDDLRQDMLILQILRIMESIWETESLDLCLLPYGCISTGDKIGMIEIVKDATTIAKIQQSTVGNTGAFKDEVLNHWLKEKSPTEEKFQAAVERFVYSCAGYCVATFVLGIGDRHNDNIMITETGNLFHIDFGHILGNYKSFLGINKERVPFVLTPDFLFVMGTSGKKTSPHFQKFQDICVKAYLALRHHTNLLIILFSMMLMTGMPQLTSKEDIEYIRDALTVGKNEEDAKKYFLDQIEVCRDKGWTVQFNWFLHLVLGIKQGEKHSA
Chain of PIK3CA (human) (P42336 whole entry, looked up): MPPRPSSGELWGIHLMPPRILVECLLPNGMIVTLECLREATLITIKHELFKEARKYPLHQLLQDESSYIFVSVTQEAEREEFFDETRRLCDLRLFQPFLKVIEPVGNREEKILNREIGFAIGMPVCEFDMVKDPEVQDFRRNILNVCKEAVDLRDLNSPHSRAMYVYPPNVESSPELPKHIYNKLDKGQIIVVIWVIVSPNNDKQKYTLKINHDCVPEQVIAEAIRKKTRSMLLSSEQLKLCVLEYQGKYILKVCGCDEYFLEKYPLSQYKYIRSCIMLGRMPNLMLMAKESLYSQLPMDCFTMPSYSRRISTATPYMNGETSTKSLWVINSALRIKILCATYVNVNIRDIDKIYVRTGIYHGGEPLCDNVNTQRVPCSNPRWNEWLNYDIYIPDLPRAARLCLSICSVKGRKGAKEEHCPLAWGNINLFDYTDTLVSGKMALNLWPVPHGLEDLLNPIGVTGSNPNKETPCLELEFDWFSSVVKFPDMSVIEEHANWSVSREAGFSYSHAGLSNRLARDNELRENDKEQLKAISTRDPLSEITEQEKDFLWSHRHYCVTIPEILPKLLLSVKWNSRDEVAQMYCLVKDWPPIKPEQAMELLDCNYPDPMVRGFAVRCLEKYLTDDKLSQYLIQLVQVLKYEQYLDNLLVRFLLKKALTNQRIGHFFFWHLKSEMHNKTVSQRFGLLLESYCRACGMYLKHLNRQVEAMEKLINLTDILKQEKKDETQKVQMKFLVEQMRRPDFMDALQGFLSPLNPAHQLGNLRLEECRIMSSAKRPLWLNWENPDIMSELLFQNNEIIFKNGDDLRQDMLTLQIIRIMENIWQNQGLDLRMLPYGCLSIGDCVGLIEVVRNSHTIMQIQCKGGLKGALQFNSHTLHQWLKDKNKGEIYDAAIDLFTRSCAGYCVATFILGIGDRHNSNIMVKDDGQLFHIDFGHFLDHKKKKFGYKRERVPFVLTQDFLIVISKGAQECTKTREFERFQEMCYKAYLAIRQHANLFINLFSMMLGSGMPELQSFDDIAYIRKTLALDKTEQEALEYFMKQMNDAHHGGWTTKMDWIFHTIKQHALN

Consider `Cn1ccc2c3nc(-c4cccc(C#N)c4)nc(N4CCOCC4)c3ccc21`, for which the values for the 50% inhibitory concentration (IC50) in assay [1] and in assay [2] were 4.28 µM and 2.77 µM, respectively.
`CCCNC(=O)Nc1ccc(-c2nc(N3CCOCC3)c3ccc4c(ccn4C)c3n2)cc1`: the values for the IC50 in assay [1] and in assay [2] were 5.66 µM and 8.4 µM, respectively.
For `Cn1ccc2c3nc(-c4cccc(C(N)=O)c4)nc(N4CCOCC4)c3ccc21`, in that order: 2.56 µM and 7.42 µM.
In assay [2], `Cn1ccc2c3nc(-c4ccc(N)cc4)nc(N4CCOCC4)c3ccc21` showed an IC50 of 10 µM.
Still for that read-out and setting: with `CN1CCN(C(=O)Nc2ccc(-c3nc(N4CCOCC4)c4ccc5c(ccn5C)c4n3)cc2)CC1` the figure was 10 µM.
Regarding `Cn1ccc2c3nc(-c4ccc(C(=O)O)cc4)nc(N4CCOCC4)c3ccc21`, the figures for the IC50 in assay [1] and in assay [2] were 12 µM and 9.84 µM, respectively.
For `Cn1ccc2c3nc(-c4cccc5[nH]ccc45)nc(C4COCCN4)c3ccc21` (stereo not drawn), in that order: 6.31 µM and 4.66 µM.
`CN(C)CCCNC(=O)Nc1ccc(-c2nc(N3CCOCC3)c3ccc4c(ccn4C)c3n2)cc1` gave an IC50 in assay [2] of 10 µM.
